Data set [1] can be described thus: Dissolution test, continuous-flow dissolution chamber, in vitro release. Format: physicochemical. The conditions noted are these: pH 1.1 artificial gastric juice, 25 ml/min, 37° C., mean of 6 measurements. How it is done: Six samples of a 250 mg preparation (50+200) were tested using a solution at pH 1.1 (artificial gastric juice) in a continuous-flow dissolution chamber (25 ml/min, 37° C.). The following percentages of release during the 24 hours were obtained (each value is the mean of 6 measurements): […]

The conditions of data set [2]: in vivo; cited from earlier work.
Where [3] appears, read: 3rd hour, 250 mg preparation (50 mg carbidopa+200 mg levodopa, ethylcellulose-coated granules).
[4] abbreviates: 6th hour, 250 mg preparation (50+200).
Setting [5] is: 9th hour, 250 mg preparation (50+200).
Setting [6] is: 12th hour, 250 mg preparation (50+200).
The mark [7] stands for this setting: 24th hour, 250 mg preparation (50+200).

On to `C[C@@](Cc1ccc(O)c(O)c1)(NN)C(=O)O` [Carbidopa, carbidopa], for which the “In vitro release, % released average” value in data set [1] (setting [3]) is 26%; in data set [1] (setting [4]) it was 39%; in data set [1] (setting [5]), 51%; in data set [1] (setting [6]), 63%; in data set [1] (setting [7]), 89%.
Consider `N[C@@H](Cc1ccc(O)c(O)c1)C(=O)O` [Levodopa, levodopa], for which the “Time to attain the maximum plasmatic concentration” value in data set [2] was 1 to 2 h. The “In vitro release, % released average” value in data set [1] (setting [3]) was found to be 22%; in data set [1] (setting [4]) it was 43%; in data set [1] (setting [5]) it was 59%; in data set [1] (setting [6]), 68%; in data set [1] (setting [7]) it was 90%.

Source of the values: patent US20070042037A1, “Pharmaceutical composition containing levodopa and carbidopa” (priority 2003, published 2007).
